ChEMBL document CHEMBL1857833, “Screening and optimization of specific chemical series against human African Trypanosomiasis (HAT)”
Converted amounts (≈) assume the structure as drawn. “And” between values parts separate entries of the source, which are not always exact repeats. Equal values may be shown once.

Experiments:
[1] = (§1) DNDI: Cytotoxicity against L929 mouse fibroblasts, 72 hour.; format: toxicity, cell-based; conditions: mouse, L929 mouse fibroblasts
[2] = DNDI: Lipophilicity measured in Chromatographic hydrophobicity index (CHI) assay, pH 7.4; format: physicochemical; conditions: buffer
[3] = DNDI: Solubility in phosphate buffered saline at pH7.4 measured by nephelometry at room temperature (NEPH-RT); format: physicochemical; conditions: pH 7.4
Trypanosoma brucei [4] = test: DNDI: Inhibition of Human African Trypanosomiasis, SBRI 427, in vitro; format: functional, organism-based
[5] = DNDI: half-life in mouse S9 microsomes at a concentration of 10uM; format: ADME, subcellular, Liver, S9 fraction
[6] = DNDI: half-life in mouse S9 microsomes at a concentration of 1uM; format: ADME, subcellular, Liver, S9 fraction
MDR1 (ABCB1) [7] = molecular target: T1, MDR1 (ABCB1) (Homo sapiens, UniProt P08183); test: DNDI: Efflux ratio for permeability from basolateral to apical side to apical to basolateral side of MDCK cells transfected with human MDR1; format: ADME, cell-based, Canis lupus familiaris; conditions: dog, read-out: B-A/A-B
T1 sequence (P08183 whole entry): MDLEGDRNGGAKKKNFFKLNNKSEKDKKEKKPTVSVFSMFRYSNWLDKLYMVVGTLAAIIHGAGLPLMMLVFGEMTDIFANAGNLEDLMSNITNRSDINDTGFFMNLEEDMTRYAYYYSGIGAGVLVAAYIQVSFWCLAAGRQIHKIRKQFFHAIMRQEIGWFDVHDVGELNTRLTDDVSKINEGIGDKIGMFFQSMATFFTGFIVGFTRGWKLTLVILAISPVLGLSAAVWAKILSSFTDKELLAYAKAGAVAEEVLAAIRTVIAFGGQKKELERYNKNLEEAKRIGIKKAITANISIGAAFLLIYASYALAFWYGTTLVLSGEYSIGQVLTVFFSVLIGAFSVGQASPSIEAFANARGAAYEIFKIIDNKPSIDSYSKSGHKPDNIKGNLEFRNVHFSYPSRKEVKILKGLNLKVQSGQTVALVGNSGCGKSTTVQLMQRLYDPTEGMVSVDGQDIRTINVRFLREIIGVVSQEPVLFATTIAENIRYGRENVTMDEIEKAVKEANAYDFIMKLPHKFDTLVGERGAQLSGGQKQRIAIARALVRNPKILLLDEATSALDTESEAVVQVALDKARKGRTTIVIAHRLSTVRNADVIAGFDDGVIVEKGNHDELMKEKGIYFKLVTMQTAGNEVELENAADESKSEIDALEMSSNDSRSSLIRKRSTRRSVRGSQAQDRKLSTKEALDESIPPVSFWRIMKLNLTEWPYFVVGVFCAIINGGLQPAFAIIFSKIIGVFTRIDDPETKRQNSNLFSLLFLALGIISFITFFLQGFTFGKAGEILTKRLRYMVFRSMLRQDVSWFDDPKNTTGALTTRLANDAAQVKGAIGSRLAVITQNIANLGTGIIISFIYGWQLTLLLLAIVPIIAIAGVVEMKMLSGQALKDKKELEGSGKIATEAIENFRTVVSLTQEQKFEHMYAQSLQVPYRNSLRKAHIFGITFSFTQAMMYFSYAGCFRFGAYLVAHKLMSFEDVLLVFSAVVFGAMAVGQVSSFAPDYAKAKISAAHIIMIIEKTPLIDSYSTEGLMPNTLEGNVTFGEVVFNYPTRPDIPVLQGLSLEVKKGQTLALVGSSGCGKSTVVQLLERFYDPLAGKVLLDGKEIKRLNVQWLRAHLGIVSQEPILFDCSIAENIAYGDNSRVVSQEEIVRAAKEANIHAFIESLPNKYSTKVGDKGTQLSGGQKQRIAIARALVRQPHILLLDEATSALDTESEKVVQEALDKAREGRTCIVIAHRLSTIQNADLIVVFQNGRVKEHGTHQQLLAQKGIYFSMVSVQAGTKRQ

[8] = (§2) DNDI: Cytotoxicity against L929 mouse fibroblasts, CYTO-SP, 24 hour; format: toxicity, cell-based; conditions: mouse, L929 mouse fibroblasts
Trypanosoma brucei [9] = test: DNDI: Inhibition of Human African Trypanosomiasis, Cross 22, in vitro; format: functional, organism-based
[10] = system: Trypanosoma brucei rhodesiense; test: DNDI: Inhibition of Human African Trypanosomiasis (HAT), STIB 900, in vitro; format: functional, organism-based
MDR1 (ABCB1) [11] = molecular target: T1, MDR1 (ABCB1); test: DNDI: % of compound recovered from apical to basolateral permeability assay in MDCK cells transfected with human MDR1; format: ADME, cell-based, Canis lupus familiaris; conditions: dog
[12] = mouse, microsomes, 1 µM
Description: DNDI: in vitro intrinsic clearance in mouse liver microsomes at a concentration of 1uM

Trypanosoma brucei [13] = test: DNDI: Inhibition of Human African Trypanosomiasis, EATRO 110, in vitro; format: functional, organism-based
MDR1 (ABCB1) [14] = molecular target: T1, MDR1 (ABCB1); test: DNDI: Apparent permeability from apical to basolateral side of the MDCK cell transfected with human MDR1; format: ADME, cell-based, Canis lupus familiaris; conditions: dog
[15] = DNDI: half life in mouse liver microsomes at a concentration of 10uM; format: ADME, Microsome
in vitro = conditions: mouse, t (1 / 2)
Description: DNDI: half life in mouse liver microsomes at a concentration of 1uM

[16] = DNDI: half life in human liver microsomes at a concentration of 10uM; format: ADME, Microsome
[17] = DNDI: Solubility in phosphate buffered saline at pH7.4 measured by optical density (turbidimetry) at room temperature (OD-RT); format: physicochemical; conditions: pH 7.4
[18] = DNDI: in vitro intrinsic clearance in mouse liver microsomes at a concentration of 10uM; format: ADME, Microsome; conditions: read-out: CLint in vitro
Leishmania donovani = test: DNDI: Inhibition of formation of Leishmania donovani (strain MHOM/ET/67/L82) axenic amastigotes, in vitro.; format: functional, organism-based
[19] = DNDI: in vitro intrinsic clearance in human liver microsomes at a concentration of 10uM; format: ADME, Microsome
Trypanosoma cruzi = test: DNDI: Inhibition of Chagas Disease parasite Trypanosoma cruzi (Tulahuen LacZ, Clone C4), in vitro.; format: functional, organism-based
MDR1 (ABCB1) [20] = molecular target: T1, MDR1 (ABCB1); test: DNDI: Apparent permeability from basolateral to apical side of the MDCK cell transfected with human MDR1 after 60 mins at a concentration of 3uM; format: ADME, cell-based, Canis lupus familiaris; conditions: dog
[21] = DNDI: Cytotoxicity against L-6 rat myoblasts from skeletal muscle cells; format: toxicity, cell-based, L6; conditions: L-6 rat skeletal muscle myoblasts
MDR1 (ABCB1) [22] = molecular target: T1, MDR1 (ABCB1); test: DNDI: % of compound recovered from basolateral to apical permeability assay in MDCK cells transfected with human MDR1; format: ADME, cell-based, Canis lupus familiaris; conditions: dog
Plasmodium falciparum = test: DNDI: Inhibition of the malaria parasite Plasmodium falciparum, in vitro; format: functional, organism-based; conditions: K1
L929 [23] = test: as §2; format: toxicity, cell-based; conditions: l929
Trypanosoma brucei [24] = test: DNDI: Mean survival time in days (MSD) of mice after intraperitoneal injection of Human African Trypanosomiasis (HAT), EATRO 110, at 0.5 mg/kg/day for 4 days.; format: functional, Mus musculus
Trypanosoma brucei [25] = test: DNDI: Mean survival time in days (MSD) of mice after intraperitoneal injection of Human African Trypanosomiasis (HAT), EATRO 110, in vivo at 12.5 mg/kg/day for 4 days.; format: functional, Mus musculus
Trypanosoma brucei [26] = test: DNDI: Mean survival time in days (MSD) of mice after intraperitoneal injection of Human African Trypanosomiasis (HAT), EATRO 110, in vivo at 2.5 mg/kg/day for 4 days.; format: functional, Mus musculus
Trypanosoma brucei [27] = test: DNDI: Mean survival time in days (MSD) of mice after intraperitoneal injection of Human African Trypanosomiasis (HAT), EATRO 110, in vivo at 5 mg/kg/day for 4 days.; format: functional, Mus musculus
Trypanosoma brucei [28] = test: DNDI: Mean survival time in days (MSD) of mice after intraperitoneal injection of Human African Trypanosomiasis (HAT), EATRO 110, in vivo at 1.25 mg/kg/day for 4 days.; format: functional, Mus musculus
Trypanosoma brucei [29] = test: DNDI: Mean survival time in days (MSD) of mice after intraperitoneal injection of Human African Trypanosomiasis (HAT), EATRO 110, in vivo at 20 mg/kg/day for 4 days.; format: functional, Mus musculus
MDR1 (ABCB1) [30] = molecular target: T1, MDR1 (ABCB1); test: DNDI: % of compound recovered from apical to basolateral permeability assay in MDCK cells transfected with human MDR1 after 60 mins at a concentration of 3uM; format: ADME, cell-based, Canis lupus familiaris; conditions: dog
MDR1 (ABCB1) [31] = molecular target: T1, MDR1 (ABCB1); test: DNDI: Apparent permeability from apical to basolateral side of the MDCK cell transfected with human MDR1after 60 mins at a concentration of 3uM; format: ADME, cell-based, Canis lupus familiaris; conditions: dog, MDCK-MDR1
MDR1 (ABCB1) [32] = molecular target: T1, MDR1 (ABCB1); test: DNDI: % of compound recovered from apical to basolateral permeability assay in MDCK cells transfected with human MDR1 after 60 mins at a concentration of 3uM in the presence of GF120918; format: ADME, cell-based, Canis lupus familiaris; conditions: dog, MDCK-MDR1, with GF120918 (concentration not stated)
L929 [33] = test: as §1; format: toxicity, cell-based; conditions: l929
[34] = Trypanosoma brucei, SBRI 427, read-out: IC50

chromatographic logD [2]	IC50 (Trypanosoma brucei [4]; [34])	half-life at 10 µM [5]	half-life at 1 µM [6]	IC50 [10]	CLint in vitro [12]	half-life at 10 µM [15]	half-life at 1 µM (in vitro; liver microsomes)	half-life at 10 µM [16]	solubility kinetic [17]	microsomal CLint at 10 µM [18]	IC50 (Leishmania donovani)	CLint in vitro [19]	IC50 (Trypanosoma cruzi)	IC50 (Plasmodium falciparum)	SMILES	IC50 at 72 h [1]	IC50 at 24 h [8]	IC50 [21]	also measured
4.2	0.555 µg/mL (≈ 1.43 µM)	> 5.83 h	> 5.83 h	–	–	–	–	–	–	–	–	–	–	–	Fc1ccc(-c2cc3nc(-c4ccccc4)cc(NC4CCNCC4)n3n2)cc1	1.11 µg/mL (≈ 2.86 µM)	–	–	solubility kinetic [3]: 13 µM (≈ 5.04 µg/mL)
4.95	–	–	–	0.342 µg/mL (≈ 1.08 µM)	36 µL/min/mg	14.7 h	0.383 h	1.47 h	32 µM (≈ 10.1 µg/mL)	3 µL/min/mg	12.3 µg/mL (≈ 38.8 µM)	33 µL/min/mg	7.7 µg/mL (≈ 24.3 µM)	1.38 µg/mL (≈ 4.36 µM)	CCCCCC(C)NCc1coc(-c2ccc(OCC)cc2)n1 (stereo not drawn)	5.27 µg/mL (≈ 16.7 µM)	> 50 µg/mL	8.28 µg/mL (≈ 26.2 µM)	efflux ratio (MDR1 (ABCB1) [7]): 1; IC50 (Trypanosoma brucei [9]): 0.67 µg/mL (≈ 2.12 µM); recovery (MDR1 (ABCB1) [11]): 33%; IC50 (Trypanosoma brucei [13]): 0.8 µg/mL (≈ 2.53 µM); Papp A→B (MDR1 (ABCB1) [14]): 20.9 ×10⁻⁶ cm/s; Papp B→A at 1 h, 3 µM (MDR1 (ABCB1) [20]): 22 ×10⁻⁶ cm/s; recovery (MDR1 (ABCB1) [22]): 56%
–	0.583 µg/mL (≈ 1.56 µM)	2.82 h	1.39 h	–	–	–	–	–	–	–	–	–	–	–	Fc1ccc(-c2cc3nc(-c4ccccc4)cc(NC4CCNC4)n3n2)cc1 (stereo not drawn)	1.39 µg/mL (≈ 3.72 µM)	–	–	–
–	1.23 µg/mL (≈ 3.59 µM)	–	–	–	50 µL/min/mg	–	0.283 h	–	–	–	–	–	–	–	CCOc1ccc(-c2nc(CNC3CC(C)CC(C)(C)C3)co2)cc1 (stereo not drawn)	< 3.13 µg/mL	44.1 µg/mL (≈ 129 µM)	–	IC50 (L929 [23]): 29.3 µg/mL (≈ 85.6 µM); IC50 (Trypanosoma brucei [9]): 0.79 µg/mL (≈ 2.31 µM); IC50 (Trypanosoma brucei [13]): 1.03 µg/mL (≈ 3.01 µM); IC50 (Trypanosoma brucei [4]): 0.79 µg/mL and 1.06 µg/mL and 1.41 µg/mL and 0.84 µg/mL
3.44	> 5 µg/mL	3.57 h	0.762 h	–	–	–	–	–	–	–	–	–	–	–	Cc1cc(N2CCNCC2)n2nc(-c3cccc(F)c3)cc2n1	9.09 µg/mL (≈ 29.2 µM)	–	–	solubility kinetic [3]: 50 µM (≈ 15.6 µg/mL); recovery at 1 h, 3 µM (MDR1 (ABCB1) [30]): 70.4%; Papp A→B at 1 h, 3 µM (MDR1 (ABCB1) [31]): 45.2 ×10⁻⁶ cm/s; recovery at 1 h, 3 µM (MDR1 (ABCB1) [32]): 63.6%
3.92	1.17 µg/mL (≈ 3.76 µM)	–	–	27.6 µg/mL (≈ 88.6 µM)	423 µL/min/mg	0.183 h	–	5.23 h	63 µM (≈ 19.6 µg/mL)	275 µL/min/mg	44 µg/mL (≈ 141 µM)	9 µL/min/mg	> 30 µg/mL	4.2 µg/mL (≈ 13.5 µM)	O/N=C(/NC1CCCCC1)c1cccnc1Oc1ccccc1	> 10 µg/mL	> 50 µg/mL	43.9 µg/mL (≈ 141 µM)	efflux ratio (MDR1 (ABCB1) [7]): 1.7; recovery (MDR1 (ABCB1) [11]): 66%; Papp A→B (MDR1 (ABCB1) [14]): 30.9 ×10⁻⁶ cm/s; half-life at 1 µM (in vitro; microsomes): 0.0333 h; Papp B→A at 1 h, 3 µM (MDR1 (ABCB1) [20]): 51.4 ×10⁻⁶ cm/s; recovery (MDR1 (ABCB1) [22]): 83%
4.56	1.07 µg/mL (≈ 3.24 µM)	–	–	–	24 µL/min/mg	1.35 h	–	1.3 h	12.5 µM (≈ 4.13 µg/mL)	36 µL/min/mg	–	37 µL/min/mg	–	–	CCCCCC(C)NCc1coc(-c2ccc(OC(C)C)cc2)n1 (stereo not drawn)	2.58 µg/mL (≈ 7.81 µM)	> 50 µg/mL	–	IC50 (L929 [33]): 3.42 µg/mL (≈ 10.3 µM); half-life at 1 µM (in vitro; microsomes): 0.583 h
–	1.55 µg/mL (≈ 4.51 µM)	–	–	–	–	–	–	–	–	–	–	–	–	–	CCCCc1ccc(-c2nc(CNCC(C)(C)CN(C)C)co2)cc1	4.92 µg/mL (≈ 14.3 µM)	–	–	IC50 (L929 [33]): 2.73 µg/mL (≈ 7.95 µM)

SMILES	chromatographic logD [2]	IC50 (Trypanosoma brucei [4]; [34])	half-life at 10 µM [5]	half-life at 1 µM [6]	IC50 [10]	CLint in vitro [12]	half-life at 10 µM [15]	half-life at 1 µM (in vitro; liver microsomes)	half-life at 10 µM [16]	solubility kinetic [17]	microsomal CLint at 10 µM [18]	IC50 (Leishmania donovani)	CLint in vitro [19]	IC50 (Trypanosoma cruzi)	IC50 (Plasmodium falciparum)	IC50 at 72 h [1]	IC50 at 24 h [8]	IC50 [21]	also measured
COc1ccc(/C(=N/O)NC2CCCCC2)cc1	3.82	0.61 µg/mL (≈ 2.46 µM)	–	–	18.3 µg/mL (≈ 73.7 µM)	329 µL/min/mg	0.0833 h	0.05 h	1.27 h	50 µM (≈ 12.4 µg/mL)	544 µL/min/mg	11.9 µg/mL (≈ 48 µM)	38 µL/min/mg	> 30 µg/mL	4.7 µg/mL (≈ 18.9 µM)	> 10 µg/mL	> 50 µg/mL	58.3 µg/mL (≈ 235 µM)	MSD (Trypanosoma brucei [24]): 4 days; MSD (Trypanosoma brucei [25]): 4 days; MSD (Trypanosoma brucei [26]): 4 days; MSD (Trypanosoma brucei [27]): 4.3 days; MSD (Trypanosoma brucei [28]): 4 days; MSD (Trypanosoma brucei [29]): 4.6 days
